Laboratory results from patent US12637468B2, “Substituted [1,2,4]triazolo[4,3-b]pyridazines as GABAA receptor modulators” (SHANGHAI SIMR BIOTECHNOLOGY CO., LTD., priority 2019, dated 2026).
≈ marks a conversion by molar mass, not a printed value.

Assays:
[1] = Rat liver microsome stability (RLM) experiment; format: in vitro ADME; details: rat liver microsomal stability
Protocol: Effect embodiment 3 Rat liver microsome stability (RLM) experiment
Rat liver microsomes (Xenotech, item No. R1000, lot No. 1310030), 100 mM potassium phosphate buffer solution (pH 7.4), 10 mM magnesium chloride.
Compound preparation: 5 μL of compound DMSO mother liquor (10 mM) was added to 495 μL of methanol to obtain an intermediate solution with a compound concentration of 100 μM. Then 50 μL of the intermediate solution was taken and dissolved in 450 μL of potassium phosphate buffer solution to obtain a test solution with a final concentration of 10 μM.
NADPH regeneration system (concentration of isocitrate dehydrogenase 1 unit/mL).
Liver microsomes (final concentration 0.5 mg protein/mL).
Reaction termination solution: cold acetonitrile containing 100 ng/mL Tolbutamide and 100 ng/mL Labetalol as an internal standard.
• (1) Preparation of buffer solution: • Buffer solution A: 1.0 L of 0.1 M potassium phosphate buffer solution containing 1.0 mM EDTA • Buffer solution B: 1.0 L of 0.1 M dipotassium phosphate buffer solution containing 1.0 mM EDTA • Buffer solution C: 0.1 M potassium phosphate buffer, 1.0 mM EDTA, pH 7.4, titrated with 700 mL of buffer solution B and buffer solution A, monitored by pH meter. • (2) Preparation of reference substance (ketanserin) and concentration of administration solution of the test substance:
[…]: […] 10 mM DMSO reference substance stock solution and test substance stock solution were added to 190 μL of ACN, respectively. 1.5 μM administration solution (containing 0.75 mg/mL liver microsomes): […] administration solution and 18.75 μL of 20 mg/mL liver microsomes were added to 479.75 μL of buffer C on a wet ice. • (3) NADPH was added to buffer solution C to obtain a NADPH stock solution (6 mM). • (4) 30 μL of 1.5 μM administration solution (containing 0.75 mg/mL of liver microsomes) was taken on the wet ice and added to the wells of the test plate at different time points (0-, 5-, 15-, 30-, 45-min), respectively. • (5) Firstly, 135 μL of ACN containing IS was added to the wells of a 0 min test plate, and then 15 μL of the NADPH stock solution (6 mM) was added. • (6) The test plate at other time points and the NADPH stock solution were pre-heated in a 37° C. water bath for 5 minutes. • (7) 15 μL of the NADPH stock solution (6 mM) was taken and added to a pre-incubated test plate, and the reaction was started and timed. • (8) At 5 min, 15 min, 30 min and 45 min, 135 μL of CAN containing IS was added to the corresponding test plate respectively, and the test was completed. • (9) Test plates were shaken with a shaker (IKA, MTS 2/4) for 10 min (600 rpm/min) and then centrifuged for 15 min (Thermo Multifuge×3R, 5594 g). • (10) 50 μL of supernatant from each well was added to a 96-well sample plate containing 50 μL of ultrapure water (Millipore, ZMQS50F01), and the samples were analyzed by LC/MS.

α5-GABAA receptor [2] = biological target: T1, α5-GABAA receptor (Homo sapiens, UniProt P18507+P31644); test: Cell-level screening: whole cell patch clamp, inverse agonist efficacy on α5-GABAA receptor expressed in HEK293; format: cell-based; details: drug 100 nM, GABA 0.05 μM, HEK293 expressing α5, β3 and γ2 subunits, clamped at −60 mV; read-out: Compound inverse agonist efficacy %
T1 construct: expressed in transfected cells; host or cells: HEK293, monoclonal stably transfected line
T1 sequence (P31644 32-462): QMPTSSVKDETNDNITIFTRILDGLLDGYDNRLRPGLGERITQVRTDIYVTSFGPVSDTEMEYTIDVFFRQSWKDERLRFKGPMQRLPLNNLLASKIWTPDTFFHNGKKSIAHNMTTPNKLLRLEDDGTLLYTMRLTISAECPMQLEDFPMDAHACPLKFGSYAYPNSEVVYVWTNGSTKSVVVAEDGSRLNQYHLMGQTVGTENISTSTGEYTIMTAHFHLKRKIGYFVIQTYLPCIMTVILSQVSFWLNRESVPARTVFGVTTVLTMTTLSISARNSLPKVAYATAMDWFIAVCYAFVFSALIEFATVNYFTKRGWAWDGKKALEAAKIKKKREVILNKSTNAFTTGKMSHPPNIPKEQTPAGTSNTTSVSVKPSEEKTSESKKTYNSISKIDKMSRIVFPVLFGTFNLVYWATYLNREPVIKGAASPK
T1 sequence (P28472 26-473 partner): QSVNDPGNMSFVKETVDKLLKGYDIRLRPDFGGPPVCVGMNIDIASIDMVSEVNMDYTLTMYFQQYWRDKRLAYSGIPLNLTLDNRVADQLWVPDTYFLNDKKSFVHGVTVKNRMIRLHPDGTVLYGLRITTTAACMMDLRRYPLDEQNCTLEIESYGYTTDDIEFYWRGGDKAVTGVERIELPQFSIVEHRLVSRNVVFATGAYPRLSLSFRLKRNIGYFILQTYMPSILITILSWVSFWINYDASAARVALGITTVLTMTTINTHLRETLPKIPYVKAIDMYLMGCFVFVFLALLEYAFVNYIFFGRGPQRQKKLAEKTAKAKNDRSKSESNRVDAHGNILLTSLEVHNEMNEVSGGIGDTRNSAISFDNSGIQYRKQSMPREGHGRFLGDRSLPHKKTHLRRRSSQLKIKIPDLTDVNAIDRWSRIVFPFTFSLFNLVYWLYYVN
T1 sequence (P18507 40-467 isoform P18507-1 limits assumed): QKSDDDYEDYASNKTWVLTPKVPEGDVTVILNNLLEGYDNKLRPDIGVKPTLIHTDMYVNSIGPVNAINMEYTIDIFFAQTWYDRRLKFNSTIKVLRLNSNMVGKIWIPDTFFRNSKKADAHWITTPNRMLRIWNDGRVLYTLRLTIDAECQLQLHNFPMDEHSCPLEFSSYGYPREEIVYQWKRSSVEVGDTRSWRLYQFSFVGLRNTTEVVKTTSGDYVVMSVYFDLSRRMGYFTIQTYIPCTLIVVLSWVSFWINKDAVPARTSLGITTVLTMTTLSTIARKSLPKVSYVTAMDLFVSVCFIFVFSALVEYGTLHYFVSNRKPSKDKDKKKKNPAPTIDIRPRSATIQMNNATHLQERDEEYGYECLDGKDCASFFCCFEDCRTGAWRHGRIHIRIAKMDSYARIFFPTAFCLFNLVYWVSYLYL
Outline: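 Whole-cell patch clamp at −60 mV on HEK293 stably expressing α5β3γ2, pH 7.4 extracellular/CsCl internal solutions. Current evoked by 0.05 μM GABA, then compound in GABA solution; screening at 100 nM, dose-response 0.3–300 nM. Inverse agonist efficacy as % change of GABA current.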

[3] = Pharmacokinetic experiment on rats: brain entry ratio (brain tissue/plasma concentration ratio); format: in vivo; details: rat, male SD rats, po 10 mg/kg
Protocol: The drug concentration ratio of plasma and brain tissue in the pharmacokinetic experiment on rats was used to evaluate the entry of compounds into brain. All rats fasted overnight before administration; the test compounds were dissolved and administered orally (po) to male SD rats, with 3 rats in each group. After administration of the test compounds, blood was collected by jugular vein puncture at 0.5 hours with about 0.25 mL per sample. The whole brain was taken at the same time. The plasma and brain tissue drug concentration were determined by LC-MS/MS method, and the pharmacokinetic parameters were calculated by Phoenix WinNonlin7.0. The dosage was 10 mg/kg, and the vehicle was 5% CMC-Na aqueous solution.

[4] = Thermodynamic solubility in simulated intestinal fluid (TS in FaSSIF); format: physicochemical; details: thermodynamic from solid, 37° C.
Protocol: Simulated intestinal fluid FaSSIF: 54.76 mg of FaSSIF-V2 (Biorelevant, batch. V2FAS-0619-A, lot. V2FAS01) was weighed and added to 15 mL of a buffer solution. After dissolving, the solution was supplemented to 30 mL, and put at room temperature for 1 hour before use.
(§1) Waters e2695 HPLC high performance liquid chromatography, Mettler XSE105 analytical balance.
(§2) Firstly, a 10 mM stock solution was prepared with DMSO, and was diluted with a diluent (ACN: PB buffer 50:50) into 1 μM-200 μM as a standard solution.
Thermodynamic solubility in intestinal fluid (TS in FaSSIF) was simulated. About 0.3 mg of each sample was weighed and added to 1.5 mL of FaSSIF solution, with two parts in parallel, shaken at 1000 rpm at 37° C. for 4 hours, filtered. 1 mL of an initial filtrate was discarded, and 400 μL of the subsequent filtrate was taken. The filtrate was detected by high performance liquid chromatograph (UV).

α5-GABAA receptor [5] = details: cited from earlier work
[6] = Thermodynamic solubility in phosphate buffer solution (TS in PBS); format: physicochemical; details: aqueous buffer, thermodynamic from solid, 50 mM phosphate buffer solution pH 7.4, shaken at room temperature for 24 hours
Protocol: 50 mM phosphate buffer solution pH=7.4:0.39 g of NaH2PO4·2H2O, and 1.4025 g of Na2HPO4 were weighted and placed in an erlenmeyer flask, then 240 mL of water was added thereto. The solid was dissolved and mixed thoroughly, and the pH value was adjusted to 7.4 with 10M NaOH solution, and the resulting solution was transferred to a 250 mL volumetric flask, followed by dilution to scale with water.
as §1, §2
Thermodynamic solubility in phosphate buffer solution (TS in PBS). 1 mg of the sample was weighed, and 1.5 mL of 50 mM phosphate buffer solution (pH 7.4) was added thereto, then the mixture was shaken at room temperature for 24 hours to ensure that the sample was saturated, and filtered. The filtrate was detected with the high performance liquid chromatograph (UV). The compounds of the present disclosure and comparative compounds are tested by this method, and the results are shown in Table 3 below: […]

[7] = Pharmacokinetic experiment on rats: maximum plasma drug concentration (Cmax); format: in vivo, rat; details: male SD rats, po, 10 mg/kg, vehicle 5% CMC-Na aqueous solution
Protocol: In the pharmacokinetic experiment on rats, the maximum plasma drug concentration (Cmax) was used to evaluate the absorption of the compounds in rats. All rats fasted overnight before administration; the test compounds were dissolved and administered orally (po) to male SD rats, with 3 rats in each group. After administration of the test compounds, blood was collected by jugular vein puncture at […] with about 0.25 mL per sample. The plasma drug concentration was determined by LC-MS/MS method, and the pharmacokinetic parameters were calculated by Phoenix WinNonlin7.0. The dosage was 10 mg/kg, and the vehicle was 5% CMC-Na aqueous solution.

[8] = Table 4, 0.5 mg protein/mL, NADPH, 37° C., 0-45 min
[9] = Table 5, compounds of the disclosure and comparative compounds

SMILES	inhibition at 0.1 µM (α5-GABAA receptor [2])	solubility thermodynamic at 4 h [4]	further results
COc1cc2nnc(-c3cc(C)on3)n2nc1OCc1ccc2c(n1)CCN(C1CCOC1)C2 (stereo not shown) [Embodiment 183]	55.8%		RLM [1, 8]: 5 µL/min/mg; Kp at 0.5 h ([3]; Table 7): 0.0183
COc1cc2nnc(-c3cc(C)on3)n2nc1OCc1ccc2c(n1)CCN(C(=O)N(C)C)C2 [Embodiment 203]	63.6%	264 µg/mL (≈ 569 µM)	
COc1cc2nnc(-c3cc(C)on3)n2nc1OCc1ccc2c(n1)CCN(C(=O)C(C)(C)C)C2 [Embodiment 206]	44.7%	34.8 µg/mL (≈ 72.8 µM)	
COc1cc2nnc(-c3cc(C)on3)n2nc1OCc1ccc2c(n1)CCN(C(=O)NCC(F)(F)F)C2 [Embodiment 208]	52.2%	34 µg/mL (≈ 65.5 µM)	
CCS(=O)(=O)N1CCc2nc(COc3nn4c(-c5cc(C)on5)nnc4cc3OC)ccc2C1 [Embodiment 210]	43.4%	47 µg/mL (≈ 96.8 µM)	
COc1cc2nnc(-c3cc(C)on3)n2nc1OCc1ccc2nc(C#N)cn2n1 [Embodiment 211, 6-(((7-Methoxy-3-(5-methylisoxazol-3-yl)-[1,2,4]triazolo[4,3-b]pyridazin-6-yl)oxy)methyl)imidazo[1,2-b]pyridazine-2-carbonitrile]	64.7%		RLM [1, 8]: 5 µL/min/mg; Kp at 0.5 h ([3]; Table 7): 0.018
COc1cc2nnc(-c3cc(C)on3)n2nc1OCc1ccc2nnc(C(C)C)n2n1 [Embodiment 214]	34.9%	237 µg/mL (≈ 562 µM)	
COc1cc2nnc(-c3cc(C)on3)n2nc1OCc1ccc2nnc(C)n2n1 [Embodiment 216]	52.1%	167 µg/mL (≈ 425 µM)	
COc1cc2nnc(-c3cc(C)on3)n2nc1OCc1ccn2c(C3CCOCC3)nnc2n1 [Embodiment 217]	45.6%	57.6 µg/mL (≈ 124 µM)	
COc1cc2nnc(-c3cc(C)on3)n2nc1OCc1ccc2nn(C3CCOC3)cc2n1 (stereo not shown) [Embodiment 231]	40.3%	30.6 µg/mL (≈ 68.1 µM)	
COc1cc2nnc(-c3cc(C)on3)n2nc1OCc1ccc2c(cnn2C2CCOC2)n1 (stereo not shown) [Embodiment 232]	53.4%	59 µg/mL (≈ 131 µM)	
COc1cc2nnc(-c3cc(C)on3)n2nc1OCc1ccc2nn(C3CN(C)C3)cc2n1 [Embodiment 233]	41.3%	245 µg/mL (≈ 547 µM)	
COc1cc2nnc(-c3cc(C)on3)n2nc1OCc1ccc2c(cnn2C2CN(C)C2)n1 [Embodiment 234]	53.2%	266 µg/mL (≈ 594 µM)	
CCOC(=O)c1ncn2c1[C@@H]1CCCN1C(=O)c1cc(OC)ccc1-2 [L-655,708]			suppression of the current (α5-GABAA receptor [5]; GABA 1 μM, highest concentration of L-655,708): 15%; inhibition of the current induced by low concentrations of GABA (α5-GABAA receptor [5]; GABA 5, 50 and 500 nM): dose-dependently inhibited; inhibitory effect on the current induced by GABA (α5-GABAA receptor [5]; GABA concentration increased above 1 μM): no inhibitory effect
COc1cc2nnc(-c3cc(C)on3)n2nc1OCc1ccccn1 [drawing 916]			solubility thermodynamic at 24 h [6]: 20.1 µg/mL (≈ 59.4 µM)
Cc1cc(-c2nnc3c4ccccc4c(OCc4ccccn4)nn23)no1 [drawing 917]			solubility thermodynamic at 24 h [6]: 0.3 µg/mL (≈ 0.837 µM)
Cc1cc(-c2nnc3cc(C(C)(C)C)c(OCc4ccccn4)nn23)no1 [drawing 918]			solubility thermodynamic at 24 h [6]: 2.6 µg/mL (≈ 7.13 µM)
CCNC(=O)c1ccc(COc2nn3c(-c4cc(C)on4)nnc3cc2OC)nc1 [drawing 919]			solubility thermodynamic at 24 h [6]: 14.2 µg/mL (≈ 34.7 µM)
CCNC(=O)c1ccc(COc2nn3c(-c4cc(C)on4)nnc3c3ccccc23)nc1 [drawing 920]			solubility thermodynamic at 24 h [6]: 0.8 µg/mL (≈ 1.86 µM)
CCNC(=O)c1ccc(COc2nn3c(-c4cc(C)on4)nnc3cc2C(C)(C)C)nc1 [drawing 921]			solubility thermodynamic at 24 h [6]: 2.5 µg/mL (≈ 5.74 µM)
COc1cc2nnc(-c3cc(C)on3)n2nc1OCc1ccccn1 [drawing 922]			RLM [1, 9]: 0.3 µL/min/mg
Cc1cc(-c2nnc3c4ccccc4c(OCc4ccccn4)nn23)no1 [drawing 923, reference compound]			RLM [1, 9]: 28.2 µL/min/mg
Cc1cc(-c2nnc3cc(C(C)(C)C)c(OCc4ccccn4)nn23)no1 [drawing 924, reference compound]			RLM [1, 9]: 33.6 µL/min/mg
CCNC(=O)c1ccc(COc2nn3c(-c4cc(C)on4)nnc3cc2OC)nc1 [drawing 925]			RLM [1, 9]: 11.4 µL/min/mg
CCNC(=O)c1ccc(COc2nn3c(-c4cc(C)on4)nnc3c3ccccc23)nc1 [drawing 926, reference compound]			RLM [1, 9]: 26 µL/min/mg
CCNC(=O)c1ccc(COc2nn3c(-c4cc(C)on4)nnc3cc2C(C)(C)C)nc1 [drawing 927, reference compound]			RLM [1, 9]: 142.6 µL/min/mg
COc1cc2nnc(-c3cc(C)on3)n2nc1OCc1ccccn1 [drawing 928]			Maximum plasma drug concentration [7]: 1778 ng/mL; Kp at 0.5 h ([3]; Table 6): 0.07

Now from value to compound, other results behind:

inhibition at 0.1 µM (α5-GABAA receptor [2])	solubility thermodynamic at 4 h [4]	SMILES	further results
51.3%	91.8 µg/mL (≈ 210 µM)	COCCn1ncc2nc(COc3nn4c(-c5cc(C)on5)nnc4cc3OC)ccc21 [Embodiment 241]	
60.4%	32.7 µg/mL (≈ 70.8 µM)	COc1cc2nnc(-c3cc(C)on3)n2nc1OCc1ccc2ncn(C3CCOCC3)c2n1 [Embodiment 247]	
